According to ChEMBL document CHEMBL5604062, “ASAP - ZIKV NS2B-NS3 protease fluorescence dose response” (2024):
Several values for one entry are separate records, joined by “and”; a condition that tells them apart may be missing. Equal values may be shown once.

Assays:
Nonstructural protein 3 [1] = target: T1, Nonstructural protein 3 (Zika virus, UniProt A0A024AXB9); test: Functional biochemical assay to identify treatments for viral infectious disease that targets Zika NS2B-NS3 protease. Utilizing a direct enzyme activity measurement method, reading the fluorescence intensity is used to characterize the relative potency of inhibitors as IC50.; design: species or system PRVABC59
Nonstructural protein 3 [2] = target: T1, Nonstructural protein 3; test: Functional biochemical assay to identify treatments for viral infectious disease that targets Zika NS2B-NS3 protease. Utilizing a direct enzyme activity measurement method, reading the fluorescence intensity is used to characterize the relative potency of inhibitors as IC50. Synthetic construct has been made based on Zika virus (strain PRVABC59) by Centre for Medicines Discovery, University of Oxford, and the assay has been performed by Enamine biological services, Bienta Ltd.The protocol is publicly available: dx.doi.org/10.17504/protocols.io.36wgqn273gk5/v1

T1 sequence (A0A024AXB9 whole entry): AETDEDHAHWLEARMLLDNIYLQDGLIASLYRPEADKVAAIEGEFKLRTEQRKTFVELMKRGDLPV

Row | SMILES | IC50 (Nonstructural protein 3 [1]) | IC50 (Nonstructural protein 3 [2])
1 | O=C1Nc2ccc(C(=O)Nc3ccc4c(c3)CNC4)cc2C1=O | 1.47 µM and 1.73 µM | 8.15 µM
2 | O=C(Nc1ccc2c(c1)CNC2)c1cc(Cl)cc2[nH]c(-c3ccccc3)nc12 | – | 2.52 µM
3 | CC(C)n1nncc1-c1cc(F)cc(C(=O)Nc2ccc3c(c2)CNC3)c1 | 1.87 µM | 3.46 µM
4 | Cc1c(C(=O)Nc2cccc(Cn3cccn3)c2)cc(C2CC2)n1C | > 25 µM | > 25 µM
5 | O=C(Nc1ccc2c(c1)CN[C@H]2CC1CC1)c1cc(F)cc2[nH]ncc12 | 0.192 µM | 0.317 µM and 0.284 µM
6 | O=C1Cc2c(cccc2C(=O)Nc2cc(Br)c3ncnn3c2)N1 | > 25 µM | > 25 µM
7 | Cc1c(C(=O)Nc2ccc3c(c2)CN(C)C3=O)cc(C2CC2)n1C | > 25 µM | > 25 µM
8 | N[C@H]1Cc2ccc(NC(=O)c3cccc4c3CC(=O)N4)cc2C1 | 2.77 µM | 7.5 µM
9 | O=C(NCC(F)F)[C@H](Nc1ncc2c(n1)CNC2)c1cc(Cl)cc(C2CC2)c1 | 4.19 µM | 19.6 µM
10 | O=C(NC1CCOCC1)[C@H](Nc1ccc2c(c1)CNC2)c1cc(Cl)cc(C2CC2)c1 | – | 1.02 µM and 0.213 µM
11 | N#Cc1cccc(-c2nc3c(C(=O)NCc4ccccc4)cc(Cl)cc3[nH]2)c1 | – | > 25 µM
12 | N#Cc1cccc(-c2nc3c(C(=O)NCc4ccccn4)cc(Cl)cc3[nH]2)c1 | – | > 25 µM
13 | O=C(Nc1ccc2c(c1)CNC2)c1cc(Cl)nc2[nH]ccc12 | 2.24 µM | –
14 | O=C(Nc1cc(-c2cccnc2)ccn1)c1cnn2c1CCCC2 | 8.03 µM | –
15 | O=C(O)c1nc(Cc2c[nH]c3ccc(Cl)cc23)c2ccccn12 | > 99.5 µM | –
16 | O=C(Nc1ccc2c(c1)CNC2)c1cncc2[nH]ncc12 | 0.443 µM | –
17 | Cc1ccc(-c2nc(NC(=O)[C@H](NC(=O)OCc3ccccc3)c3ccc(OCc4ccccc4)cc3)sc2CN(C)C)cc1 | > 99.5 µM | –
18 | O=C(Nc1ccc2c(c1)CNC2)c1cc(F)c2[nH]c(=O)[nH]c2c1 | 0.429 µM | –
19 | O=C(Nc1ccc(F)nc1)Oc1ccccc1 | > 100 µM | –
20 | O=C(Nc1ccc2c(c1)CNC2)c1cc(Cl)cc2nn(C3CCC3)cc12 | 0.176 µM | –
21 | O=C(Nc1ccc2c(c1)CNC2)c1cc(C(F)(F)F)c2cn[nH]c2n1 | > 25 µM | –
22 | CCN1CC[C@H](COc2cccc([C@H](NC(=O)OCc3ccccc3)C(=O)Nc3cccc(CN)c3)c2)C1 | > 99.5 µM | –

Row | SMILES | IC50 (Nonstructural protein 3 [1]) | IC50 (Nonstructural protein 3 [2])
23 | NCCC1(C(=O)Nc2ccc3c(c2)C(=O)OC3)CCCC1 | > 25 µM | –
24 | O=C(Nc1ccc2c(c1)B(O)OC2)c1cccc(OCc2c(Cl)cccc2Cl)c1 | > 99.5 µM | –
25 | c1ccc(COc2ccc3[nH]cc(CN4CCC(c5cscn5)CC4)c3c2)cc1 | > 99.5 µM | –
26 | N#Cc1ccc2[nH]cc(Cc3ccc(-c4nnn[nH]4)cc3)c2c1 | > 99.5 µM | –
27 | NCCCOc1cc2c(c(-c3ccc(N)nc3)c1)CCB(O)O2 | > 99.5 µM | –
28 | CCCn1nc(C)c2c(C(=O)Nc3cccc(CN)c3)cc(C)nc21 | > 99.5 µM | –
29 | C[C@H]1COCCN1C(=O)c1cc(Cl)ccc1NS(=O)(=O)c1ccc(Oc2ccccc2Cl)cc1 | > 99.5 µM | –
30 | Cc1c(C(=O)Nc2cc(C3(C)OCCO3)ccn2)cc(C2CC2)n1C | > 25 µM | –
31 | Cc1noc(C)c1C(=O)N[C@@H](C(=O)Nc1cccc(CN)c1)c1ccc(OCc2ccccc2)cc1 | > 99.5 µM | –
32 | O=C(O)c1cc(Cl)ccc1S(=O)(=O)NC1CCN(Cc2ccccn2)CC1 | > 99.5 µM | –
33 | CC[C@H](Cc1nnn[nH]1)c1ccc(NC(=O)c2cc(Cl)cc(-n3cccc3)c2)cc1 | 52.9 µM | –
34 | OCCCCCc1nc(-c2ccc(Br)o2)no1 | > 99.5 µM | –
35 | NCCCc1ccnc(NC(=O)c2cnn3c2CCC3)c1 | > 25 µM | –
36 | Cc1nc(CCCNCc2n[nH]c3ccccc23)cs1 | > 99.5 µM | –
37 | O=C1Cc2c(cccc2C(=O)N[C@H]2CCSC3(CCOCC3)C2)N1 | > 25 µM | –
38 | CCn1c(=O)c(N2CCC[C@@H]2c2cncn2C)nc2ccccc21 | > 99.5 µM | –
39 | O=C(Nc1ccc2c(c1)CNC2)c1cc(F)cc2c1CCNC2 | 0.115 µM | –
40 | CCn1c(=O)c(N2C[C@H]3COC[C@@]3(C)C2)nc2ccccc21 | > 99.5 µM | –
41 | Cc1ccc(CN(C)C)cc1NC(=O)[C@@H](NC(=O)OCc1ccccc1)c1ccc(OCc2ccccc2)cc1 | > 99.5 µM | –
42 | O=C(Nc1cc(Cl)cc(C(=O)Nc2nccn2C2CNC2)c1)OCc1ccccc1 | > 99.5 µM | –
43 | NCc1cccc(NC(=O)[C@@H](NS(=O)(=O)C[C@H]2CCCCO2)c2ccc(OCc3ccccc3)cc2)c1 | > 99.5 µM | –
44 | O=C(Nc1ccc2c(c1)CNC2)c1cc(Cl)cc2[nH]c(-c3cccc(F)c3)nc12 | – | 4.21 µM
